Data: patent US9045491B2, “Thienyl [3,2-D] pyrimidin-4-one compounds, preparation method, pharmaceutical compositions and use thereof” (SHANGHAI INSTITUTE OF MATERIA MEDICA, CHINESE ACADEMY OF …, priority 2011, dated 2015)
Counter-ions that a name gives are not always drawn.

How the values were obtained:
Assay type in all cases: biochemical
[1] = molecular target: T1, human DPP IV (Homo sapiens, UniProt P27487); assay: DPP IV activity screening (Ala-Pro-AMC fluorescence)
T1 construct: extracellular fragment of protease DPP IV (aa29-766); made in house; host or cells: baculovirus expression system Bac-to-Bac
T1 sequence (P27487 29-766): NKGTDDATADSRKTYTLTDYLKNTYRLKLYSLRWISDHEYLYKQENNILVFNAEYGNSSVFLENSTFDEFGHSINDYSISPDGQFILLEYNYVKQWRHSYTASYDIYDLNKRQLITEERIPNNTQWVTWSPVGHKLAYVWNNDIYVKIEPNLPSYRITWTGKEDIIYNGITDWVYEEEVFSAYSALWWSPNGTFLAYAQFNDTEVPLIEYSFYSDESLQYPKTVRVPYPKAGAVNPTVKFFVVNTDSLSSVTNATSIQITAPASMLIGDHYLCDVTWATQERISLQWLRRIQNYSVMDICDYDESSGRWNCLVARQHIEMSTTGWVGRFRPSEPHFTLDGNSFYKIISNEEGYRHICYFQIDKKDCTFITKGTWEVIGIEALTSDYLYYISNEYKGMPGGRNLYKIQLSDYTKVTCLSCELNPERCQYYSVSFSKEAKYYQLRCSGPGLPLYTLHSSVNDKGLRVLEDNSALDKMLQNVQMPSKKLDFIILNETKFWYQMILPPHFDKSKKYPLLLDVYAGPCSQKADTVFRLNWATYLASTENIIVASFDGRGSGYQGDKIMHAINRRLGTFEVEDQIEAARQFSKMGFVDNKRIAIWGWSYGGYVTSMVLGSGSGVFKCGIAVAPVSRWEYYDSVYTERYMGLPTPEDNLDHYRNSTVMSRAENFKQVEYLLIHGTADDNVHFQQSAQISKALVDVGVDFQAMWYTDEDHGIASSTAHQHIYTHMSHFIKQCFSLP
Protocol: (§1) Screening method: dipeptidyl peptidase IV (DPP IV) activity screening, dipeptidyl peptidase 7 (DPP 7), dipeptidyl peptidase 8 (DPP 8) activity screening, and dipeptidyl peptidase 9 (DPP 9) activity screening.
Instruments: Microplate Reader (PerkinElmer, USA).
The linear change of fluorescence value at 460 nm in unit time was dynamically measured and DPP IV activity was obtained by calculation.
(§2) Sample treatment: the sample was dissolved in DMSO and stored in low temperature. The concentration of DMSO in the final system was controlled so that the detected activity was not affected.
(§3) The activity of sample was tested under the selected single concentration from preliminary screening, for example, 20 μg/mL. […] The software for calculation was Graphpad Prism 4 and the model used for fitting was sigmoidal dose-response (variable slope). For most inhibitor screening models, the bottom and top of the fitting curve were set to 0 and 100.

[2] = molecular target: dipeptidyl peptidase 7 (DPP 7) (Homo sapiens, UniProt Q9UHL4); assay: DPP 7 activity screening; conditions: N.I. = No Inhibition
Protocol: as §1, §2, §3

[3] = molecular target: T2, FAP (Homo sapiens, UniProt Q12884); assay: FAP inhibition (Table 1); conditions: N.I. = No Inhibition
T2 sequence (Q12884 1-760): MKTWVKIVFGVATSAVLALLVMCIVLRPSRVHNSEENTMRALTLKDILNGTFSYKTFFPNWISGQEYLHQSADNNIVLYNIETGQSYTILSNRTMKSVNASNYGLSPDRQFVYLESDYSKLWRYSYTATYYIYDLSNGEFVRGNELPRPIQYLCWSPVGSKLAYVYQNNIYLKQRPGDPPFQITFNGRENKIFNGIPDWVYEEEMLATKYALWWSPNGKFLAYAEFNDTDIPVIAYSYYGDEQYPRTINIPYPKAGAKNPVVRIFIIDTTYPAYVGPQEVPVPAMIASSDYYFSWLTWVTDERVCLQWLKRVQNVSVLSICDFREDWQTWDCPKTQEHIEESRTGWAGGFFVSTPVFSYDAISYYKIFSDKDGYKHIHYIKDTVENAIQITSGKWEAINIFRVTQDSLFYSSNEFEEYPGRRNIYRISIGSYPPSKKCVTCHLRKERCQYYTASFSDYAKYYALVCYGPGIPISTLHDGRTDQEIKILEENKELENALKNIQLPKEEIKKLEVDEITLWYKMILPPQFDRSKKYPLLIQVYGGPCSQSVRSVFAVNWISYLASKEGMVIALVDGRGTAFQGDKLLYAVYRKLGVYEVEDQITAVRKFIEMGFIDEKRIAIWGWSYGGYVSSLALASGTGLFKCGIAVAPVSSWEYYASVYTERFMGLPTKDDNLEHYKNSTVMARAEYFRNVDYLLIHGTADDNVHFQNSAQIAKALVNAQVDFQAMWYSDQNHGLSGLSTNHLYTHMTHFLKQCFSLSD

[4] = molecular target: T3, Human DPP 9 (Homo sapiens, UniProt Q86TI2); assay: DPP 9 activity screening (Ala-Pro-AMC fluorescence); conditions: N.I. = No Inhibition
T3 construct: made in house; host or cells: insect cells, baculovirus Bac-to-Bac
T3 sequence (Q86TI2 whole entry): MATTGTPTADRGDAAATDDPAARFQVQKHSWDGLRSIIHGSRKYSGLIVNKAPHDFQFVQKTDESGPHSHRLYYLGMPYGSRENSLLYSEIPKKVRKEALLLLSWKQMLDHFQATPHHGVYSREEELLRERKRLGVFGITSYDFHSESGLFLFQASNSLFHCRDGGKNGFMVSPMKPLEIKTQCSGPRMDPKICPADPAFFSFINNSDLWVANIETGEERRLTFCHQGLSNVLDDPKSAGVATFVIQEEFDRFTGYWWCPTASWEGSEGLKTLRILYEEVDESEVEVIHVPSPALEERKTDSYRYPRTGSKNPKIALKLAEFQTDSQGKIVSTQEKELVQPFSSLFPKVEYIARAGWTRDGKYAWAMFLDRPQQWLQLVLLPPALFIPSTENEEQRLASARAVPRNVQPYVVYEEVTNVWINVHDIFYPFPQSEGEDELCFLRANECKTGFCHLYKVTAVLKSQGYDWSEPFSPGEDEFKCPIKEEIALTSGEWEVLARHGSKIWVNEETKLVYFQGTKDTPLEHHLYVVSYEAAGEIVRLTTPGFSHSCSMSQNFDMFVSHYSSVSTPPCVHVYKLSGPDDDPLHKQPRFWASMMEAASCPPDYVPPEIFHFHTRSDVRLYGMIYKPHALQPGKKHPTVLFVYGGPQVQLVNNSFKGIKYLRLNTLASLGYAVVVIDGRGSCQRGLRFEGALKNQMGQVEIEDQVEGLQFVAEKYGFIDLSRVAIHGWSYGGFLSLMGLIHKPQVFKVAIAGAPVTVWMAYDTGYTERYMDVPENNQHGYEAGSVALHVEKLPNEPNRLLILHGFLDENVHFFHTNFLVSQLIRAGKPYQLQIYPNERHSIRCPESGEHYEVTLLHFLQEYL
Text: as §1
(§4) Materials: human DPP IV, obtained extracellular fragment of protease DPP IV (aa29-766), was expressed and purified by our laboratory using baculovirus expression system Bac-to-Bac (purchased from GIBCO company) in accordance with the conventional experimental technology; human DPP 8 was obtained in insect cells by our laboratory using baculovirus expression system Bac-to-Bac (purchased from GIBCO company) in accordance with the conventional experimental technology; Human DPP 9 was obtained in insect cells by our laboratory using baculovirus expression system Bac-to-Bac (purchased from GIBCO company) in accordance with the conventional experimental technology; and the substrate Ala-Pro-AMC was synthesized by GL Biochem (Shanghai) Ltd.
(§5) Principle of Activity test: DPP IV, DPP 8 and DPP 9 can specifically hydrolyze the substrate Ala-Pro-AMC to form product AMC, and AMC is excited by 355 nm of UV light to generate 460 nm of emission light. The linear change of fluorescence value at 460 nm in unit time was dynamically measured and DPP IV activity was obtained by calculation.
as §2, §3

[5] = molecular target: T4, human DPP 8 (Homo sapiens, UniProt Q6V1X1); assay: DPP 8 activity screening (Ala-Pro-AMC fluorescence); conditions: N.I. = No Inhibition
T4 construct: made in house; host or cells: insect cells, baculovirus Bac-to-Bac
T4 sequence (Q6V1X1 whole entry): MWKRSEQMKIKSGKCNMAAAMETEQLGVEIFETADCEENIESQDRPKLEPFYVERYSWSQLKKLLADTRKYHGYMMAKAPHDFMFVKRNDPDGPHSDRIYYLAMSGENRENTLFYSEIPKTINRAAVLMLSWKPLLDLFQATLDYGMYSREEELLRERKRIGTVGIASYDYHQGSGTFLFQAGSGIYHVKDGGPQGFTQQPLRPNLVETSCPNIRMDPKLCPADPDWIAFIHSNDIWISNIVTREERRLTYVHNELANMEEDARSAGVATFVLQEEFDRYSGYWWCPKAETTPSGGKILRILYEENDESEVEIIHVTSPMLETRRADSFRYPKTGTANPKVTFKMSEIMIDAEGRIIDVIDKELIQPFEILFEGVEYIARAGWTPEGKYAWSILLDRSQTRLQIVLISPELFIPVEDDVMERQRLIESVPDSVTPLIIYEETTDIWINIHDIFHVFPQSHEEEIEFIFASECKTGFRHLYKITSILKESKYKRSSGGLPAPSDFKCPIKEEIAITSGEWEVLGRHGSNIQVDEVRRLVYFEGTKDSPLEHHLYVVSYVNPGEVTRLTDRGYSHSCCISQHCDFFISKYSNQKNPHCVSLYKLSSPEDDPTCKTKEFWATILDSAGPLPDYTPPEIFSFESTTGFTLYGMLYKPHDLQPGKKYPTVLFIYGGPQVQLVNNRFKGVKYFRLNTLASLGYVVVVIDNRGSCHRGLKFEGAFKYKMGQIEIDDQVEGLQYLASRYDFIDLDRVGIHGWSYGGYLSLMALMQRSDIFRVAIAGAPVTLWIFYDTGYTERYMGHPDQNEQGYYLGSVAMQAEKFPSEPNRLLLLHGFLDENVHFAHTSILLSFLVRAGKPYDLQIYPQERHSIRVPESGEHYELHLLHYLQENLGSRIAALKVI
Text: as §1, §4, §5, §2, §3

IC50 [1]	DPP 7 IC50 [2]	IC50 [3]	IC50 [4]	IC50 [5]	FAP IC50 [3]	DPP 9 IC50 [4]	DPP 8 IC50 [5]	IC50 [2]	Structure (SMILES)
0.0102 µM	N.I.	85.9 µM	35.2 µM	27 µM					N#Cc1ccccc1Cn1c(N2CCC[C@@H](N)C2)nc2cc(CO)sc2c1=O [Compound 28, (R)-2-((2-(3-aminopiperidin-1-yl)-6-(hydroxymethyl)-4-oxothieno[3,2-d]-pyrimidin-3(4H)-yl)methyl)benzonitrile]
0.0115 µM	N.I.				N.I.	N.I.	N.I.		COC(=O)c1cc2nc(N3CCC[C@@H](N)C3)n(Cc3ccccc3C#N)c(=O)c2s1 [Compound 38, (R)-methyl 2-(3-aminopiperidin-1-yl)-3-(2-cyanobenzyl)-4-oxo-3,4-dihydrothieno[3,2-d]pyrimidine-6-carboxylate]
0.0283 µM	N.I.				N.I.	N.I.	N.I.		Cl.N#Cc1ccccc1Cn1c(N2CCC[C@@H](N)C2)nc2cc(C(=O)O)sc2c1=O [Compound 39, (R)-2-(3-aminopiperidin-1-yl)-3-(2-cyanobenzyl)-4-oxo-3,4-dihydrothieno-[3,2-d]pyrimidine-6-carboxylic acid hydrochloride]
0.0183 µM	N.I.	213 µM	266 µM				N.I.		N#Cc1ccccc1Cn1c(N2CCC[C@@H](N)C2)nc2cc(C(=O)NC3CC3)sc2c1=O [Compound 40, (R)-2-(3-aminopiperidin-1-yl)-3-(2-cyanobenzyl)-N-cyclopropyl-4-oxo-3,4-dihydrothieno[3,2-d]pyrimidine-6-carboxamide]
0.00976 µM					N.I.	N.I.	N.I.	39.2 µM	N#Cc1ccccc1Cn1c(N2CCC[C@@H](N)C2)nc2c(C(=O)O)csc2c1=O [Compound 44, (R)-2-(3-aminopiperidin-1-yl)-3-(2-cyanobenzyl)-4-oxo-3,4-dihydrothieno-[3,2-d]pyrimidine-7-carboxylic acid hydrochloride]
0.00357 µM	N.I.				N.I.	N.I.	N.I.		N#Cc1ccccc1Cn1c(N2CCC[C@@H](N)C2)nc2c(C(N)=O)csc2c1=O [Compound 45, (R)-2-(3-aminopiperidin-1-yl)-3-(2-cyanobenzyl)-4-oxo-3,4-dihydrothieno-[3,2-d]pyrimidine-7-carboxamide]
0.238 µM					N.I.	N.I.	N.I.	39.2 µM	COC(=O)C1CCN(Cc2csc3c(=O)n(Cc4ccccc4C#N)c(N4CCC[C@@H](N)C4)nc23)CC1 [Compound 54, (R)-methyl 1-((2-(3-aminopiperidin-1-yl)-3-(2-cyanobenzyl)-4-oxo-3,4-dihydrothieno[3,2-d]pyrimidin-7-yl)-methyl)piperidine-4-carboxylate]
0.0178 µM	N.I.				N.I.	N.I.	N.I.		N#Cc1ccccc1Cn1c(N2CCC[C@@H](N)C2)nc2c(CN3CCOCC3)csc2c1=O [Compound 55, (R)-2-((2-(3-aminopiperidin-1-yl)-7-(morpholinomethyl)-4-oxothieno-[3,2-d]pyrimidin-3(4H)-yl)methyl)-benzonitrile]
0.0113 µM	N.I.				N.I.	N.I.	N.I.		CC(=O)OCc1csc2c(=O)n(Cc3ccccc3C#N)c(N3CCC[C@@H](N)C3)nc12 [Compound 56, (R)-(2-(3-aminopiperidin-1-yl)-3-(2-cyanobenzyl)-4-oxo-3,4-dihydrothieno-[3,2-d]pyrimidin-7-yl)methyl acetate]
0.00872 µM	N.I.			14.3 µM	N.I.	N.I.			CCOC(=O)CNC(=O)c1csc2c(=O)n(Cc3ccccc3C#N)c(N3CCC[C@@H](N)C3)nc12 [Compound 58, (R)-ethyl 2-(2-(3-aminopiperidin-1-yl)-3-(2-cyanobenzyl)-4-oxo-3,4-dihydrothieno[3,2-d]pyrimidine-7-carboxamido)acetate]
0.0266 µM	N.I.	49.5 µM	187 µM	35 µM					COC(=O)[C@@H](NC(=O)c1csc2c(=O)n(Cc3ccccc3C#N)c(N3CCC[C@@H](N)C3)nc12)C(C)C [Compound 59, (S)-methyl 2-(2-((R)-3-aminopiperidin-1-yl)-3-(2-cyanobenzyl)-4-oxo-3,4-dihydrothieno[3,2-d]pyrimidine-7-carboxamido)-3-methylbutanoate]
0.0133 µM	N.I.	57.1 µM	110 µM	36.8 µM					N#Cc1ccccc1Cn1c(N2CCC[C@@H](N)C2)nc2c(C(=O)NCCO)csc2c1=O [Compound 60, (R)-2-(3-aminopiperidin-1-yl)-3-(2-cyanobenzyl)-N-(2-hydroxyethyl)-4-oxo-3,4-dihydrothieno[3,2-d]-pyrimidine-7-carboxamide]
0.0139 µM	N.I.	30.3 µM	254 µM	45.9 µM					CNC(=O)c1csc2c(=O)n(Cc3ccccc3C#N)c(N3CCC[C@@H](N)C3)nc12 [Compound 61, (R)-2-(3-aminopiperidin-1-yl)-3-(2-cyanobenzyl)-N-methyl-4-oxo-3,4-dihydrothieno[3,2-d]pyrimidine-7-carboxamide]
0.0492 µM	N.I.	37.4 µM	54.8 µM	12.3 µM					COC(=O)[C@H](Cc1ccc(O)cc1)NC(=O)c1csc2c(=O)n(Cc3ccccc3C#N)c(N3CCC[C@@H](N)C3)nc12 [Compound 62, (S)-methyl 2-(2-((R)-3-aminopiperidin-1-yl)-3-(2-cyanobenzyl)-4-oxo-3,4-dihydrothieno[3,2-d]pyrimidine-7-carboxamido)-3-(4-hydroxyphenyl)-propanoate]
0.0275 µM	N.I.	170 µM	189 µM	47.9 µM					CN(C)C(=O)c1csc2c(=O)n(Cc3ccccc3C#N)c(N3CCC[C@@H](N)C3)nc12 [Compound 63, (R)-2-(3-aminopiperidin-1-yl)-3-(2-cyanobenzyl)-N,N-dimethyl-4-oxo-3,4-dihydrothieno[3,2-d]pyrimidine-7-carboxamide]

Structure (SMILES)	IC50 [1]	DPP 7 IC50 [2]	IC50 [3]	IC50 [4]	IC50 [5]	FAP IC50 [3]	DPP 9 IC50 [4]	DPP 8 IC50 [5]	IC50 [2]
N#Cc1ccccc1Cn1c(N2CCC[C@@H](N)C2)nc2c(CO)csc2c1=O [Compound 43, (R)-2-((2-(3-aminopiperidin-1-yl)-7-(hydroxymethyl)-4-oxothieno[3,2-d]-pyrimidin-3(4H)-yl)methyl)benzonitrile]	0.0189 µM	N.I.				N.I.	N.I.	N.I.	
COC(=O)c1csc2c(=O)n(Cc3ccccc3C#N)c(N3CCC[C@@H](N)C3)nc12 [Compound 57, (R)-methyl 2-(3-aminopiperidin-1-yl)-3-(2-cyanobenzyl)-4-oxo-3,4-dihydrothieno[3,2-d]pyrimidine-7-carboxylate]	0.02 µM					N.I.	N.I.	N.I.	69.5 µM
